Several values for one entry are separate records, joined by “and”; a condition that tells them apart may be missing. Equal values may be shown once. Read-outs that look alike come from different tables or passages of the source. Marks after values point to notes of the source that are not given here.
What was measured:
[1] = Diet-induced obesity (DIO) mice study: blood glucose, insulin, plasma lipids, body weight, food intake; assay type: in vivo, C57BL/6J male mice; settings: Atorvastatin 20 mg/kg, test articles tid po 10 mL/kg + ad libitum
[2] = system: Molt-4-luc leukemia; assay type: in vivo
Protocol: Temperature and relative humidity were monitored daily.
The tumor cells were routinely subcultured twice weekly.
Whole body and metastatic bioluminescence were measured and recorded.
Tumor growth curve was plotted with median relative bioluminescence.

[3] = system: MDA-MB-436 human breast cancer; test: Subcutaneous MDA-MB-436 human breast cancer xenograft model, tumor volume and weight; assay type: in vivo, female BALB/c nude mice
Protocol: The in vivo anti-tumor efficacy of KHJ, KH103, and KHGD in the subcutaneous MDA-MB-436 human breast cancer model in female BALB/c nude mice was evaluated.
The animals used were of the species Mus musculus, strain BALB/c nude, age 6-8 weeks, and female. The body weight was 18-22 g. The number of animals was 90 mice, plus spare. The animal supplier was Shanghai BK Laboratory Animal Co., LTD.
The tumor cells were routinely subcultured twice weekly by trypsin-EDTA treatment.
Each mouse was inoculated subcutaneously at the right flank with MDA-MB-436 tumor cells (1×10^7) in 0.1 ml of PBS supplemented with BD Matrigel (1:1) for tumor development. The prophylactic treatments were started 13 days before inoculation. The therapeutic treatments were started on day 9 after tumor inoculation when the average tumor size reached approximately 81 mm^3. Each group consisted of 10 tumor-bearing mice. The testing article was administrated to the mice according to the predetermined regimen as shown in the experimental design Table 21 (prophylactic) and Table 22 (therapeutic).
The major endpoint was to see if the tumor growth could be delayed or mice could be cured. Tumor size was measured twice weekly in two dimensions using a caliper, and the volume was expressed in mm^3 using the formula: V=0.5 a×b^2 where a and b are the long and short diameters of the tumor, respectively. The tumor size was then used for calculations of both T-C and T/C values. T-C was calculated with T as the time (in days) required for the mean volume of treatment group tumors to reach 600 mm^3, and C as the time (in days) for the mean volume of control group tumors to reach the same size. The T/C value (in percent) is an indication of antitumor effectiveness; T and C are the mean volumes of the treated and control groups, respectively, on a given day.
ΔTGI was calculated for each group using the formula: ΔTGI (%)=[1−(Ti−T0)/(Vi−V0)]×100; Ti is the average tumor volume of a treatment group on a given day, T0 is the average tumor volume of the treatment group on the day of treatment start, Vi is the average tumor volume of the vehicle control group on the same day with Ti, and V0 is the average tumor volume of the vehicle group on the day of treatment start.
Tumor pictures were taken and tumor weight was measured at the study termination. T/Cweight value (in percent) was calculated using the formula: T/Cweight%=Tweight/Cweight×100% where Tweight and Cweight were the mean tumor weights of the treated and vehicle control groups, respectively.
Statistical analyses of differences in tumor volume and tumor weight among the groups were conducted on the data obtained when the average tumor volume of vehicle-therapeutic group reached 2,000 mm^3 (Day 71 after inoculation).
One-way ANOVA was performed to compare tumor volume and tumor weight among groups, and when a significant F-statistics (a ratio of treatment variance to the error variance) was obtained, comparisons between groups were carried out with Dunnett t-tests.

[4] = assay type: in vivo, female BALB/c nude mice
Protocol: At the time of routine monitoring, the animals were daily checked for any effects of tumor growth and treatments on normal behavior such as mobility, food and water consumption (by looking only), body weight gain/loss (body weights were measured twice weekly), eye/hair matting and any other abnormal effect as stated in the protocol. Death and observed clinical signs were recorded on the basis of the numbers of animals within each subset.
Animal body weight was monitored regularly as an indirect measure of toxicity (FIG. 54A-B). No group lost weight as a result of test article administration, except the prophylactic KHGD Group 4 which was found with sign of emaciation and dehydration due to the 3 days' whole-day supply of KHGD.

[5] = system: 3T3-L1 adipocytes; test: Glucose uptake assay (2-deoxy-D-[3H]-glucose) in 3T3-L1 adipocytes; assay type: cell-based; settings: for EC50: read-out: Insulin EC50
[6] = day 111 after the cell injection, positive control, treatment right after cell injection, of 6 mice
[7] = 2014 Aug. 27, insulin dose 0.01 nM
[8] = 2014 Aug. 27, insulin dose 0.03 nM
[9] = 2014 Aug. 27, insulin dose 0.09 nM
[10] = 2014 Aug. 27, insulin dose 0.27 nM
[11] = 2014 Aug. 27, insulin dose 7.41 nM
[12] = 2014 Aug. 27, insulin dose 22.2 nM
[13] = 2014 Aug. 27, insulin dose 66.7 nM
[14] = 2014 Aug. 27, insulin dose 200 nM
[15] = 2014 Aug. 28, insulin dose 0.27 nM
[16] = 2014 Aug. 28, insulin dose 2.47 nM
[17] = 2014 Aug. 28, insulin dose 7.41 nM
[18] = 2014 Aug. 28, insulin dose 22.2 nM
[19] = 2014 Aug. 28, insulin dose 66.7 nM
[20] = 2014 Aug. 28, insulin dose 200 nM
[21] = 2014 Jul. 11, insulin dose 0.82 nM
[22] = 2014 Jul. 11, insulin dose 7.41 nM
[23] = 2014 Jul. 11, insulin dose 22.22 nM
[24] = 2014 Jul. 11, insulin dose 66.67 nM
[25] = 2014 Jul. 11, insulin dose 200 nM
[26] = 2014 Jul. 14, insulin dose 0.09 nM
[27] = 2014 Jul. 14, insulin dose 0.82 nM
[28] = 2014 Jul. 14, insulin dose 2.47 nM
[29] = 2014 Jul. 14, insulin dose 7.41 nM
[30] = 2014 Jul. 14, insulin dose 22.2 nM
[31] = 2014 Jul. 14, insulin dose 66.7 nM
[32] = 2014 Jul. 14, insulin dose 200 nM
[33] = Insulin dose 0.09 nM, duplicates
[34] = Insulin dose 7.41 nM, duplicates
[35] = Insulin dose 22.2 nM, duplicates
[36] = Insulin dose 66.7 nM, duplicates
[37] = Insulin dose 200 nM, duplicates

Compound: CC(C)c1c(C(=O)Nc2ccccc2)c(-c2ccccc2)c(-c2ccc(F)cc2)n1CC[C@@H](O)C[C@@H](O)CC(=O)O [Atorvastatin]
- body weight of the DIO mice [1]: significantly decrease
- blood glucose level ([1]; DIO mice, 0-8 weeks): significantly decrease
- insulin sensibility ([1]; DIO mice, 0-8 weeks): significantly increase

Compound: O=P1(N(CCCl)CCCl)NCCCO1 (stereo not shown) [Cyclophosphamide]
- survival until day 150 ([2]; all mice of the group): died
- median relative bioluminescence ([2]; day 50 after cell implantation, treatment given right after cell injection (therapeutic / positive control group), vehicle 153.43): 1.40
- Animals # with bioluminescence signal [2, 6]: 1
- Survival animals # [2, 6]: 5
- survival of mice ([2]; day 111 after the cell injection, six mice per group, vehicle: two mice died): one mouse died
- day at which one mouse died ([2]; mouse, in vivo): 57 days

Compound: CC(=O)O[C@H]1C(=O)[C@@]2(C)[C@H]([C@H](OC(=O)c3ccccc3)[C@]3(O)C[C@H](OC(=O)[C@H](O)[C@@H](NC(=O)c4ccccc4)c4ccccc4)C(C)=C1C3(C)C)[C@]1(OC(C)=O)CO[C@@H]1C[C@@H]2O [Paclitaxel]
- Tumor Size at day 71 ([3]; therapeutic arm, Mean ± SEM at day 71 after inoculation): 637 ± 211 mm^3
- Tumor Weight at day 78 ([3]; therapeutic arm, Mean ± SEM at day 78 after inoculation): 0.67 ± 0.23 g
- ΔTGI ([3]; therapeutic arm, day 71): 71%
- T-C at 600 mm^3 ([3]; therapeutic arm, tumor growth delay at tumor size 600 mm^3): 23 days
- T/C ([3]; therapeutic arm, tumor volume at day 71 vs vehicle-therapeutic): 31%
- T/Cweight ([3]; therapeutic arm, tumor weight at day 78 vs vehicle-therapeutic): 39.6%
- antitumor activity ([3]; therapeutic arms): statistically significant antitumor activity
- tumor growth delay at tumor size of 600 mm^3 ([3]; therapeutic arms, compared with the vehicle group): 23 days
- T/C value ([3]; therapeutic arms, day 71): 31%
- mean tumor size ([3]; therapeutic arms, day 71 after tumor inoculation, vehicle 2,025, Paclitaxel 1.5 mg/kg, BIW×9 weeks): 637 mm^3
- mortality ([4]; Group 6, days after the start of therapeutic treatment, possibly due to drug toxicity): died on day 20 and day 63
- BWL > 20% ([4]; mouse, in vivo): 0
- Subtotal mice# lost/N ([4]; therapeutic arm): 2/10
- mortality ([4]; therapeutic arm, number of animals, n=10): 2^a (D20, 63)^b

Compound: Insulin
- % Activity [5, 7]: 5% and 6%
- Count [5, 7]: 2169 and 2178
- % Activity [5, 8]: −8% and −12%
- Count [5, 8]: 2065 and 2030
- % Activity [5, 9]: 6% and 4%
- Count [5, 9]: 2177 and 2166
- % Activity [5, 10]: 2% and −7%
- Count [5, 10]: 2145 and 2075
- Count ([5]; 2014 Aug. 27, insulin dose 0.82 nM): 2390 and 2146
- Count ([5]; 2014 Aug. 27, insulin dose 2.47 nM): 2131 and 2284
- % Activity [5, 11]: 54% and 42%
- Count [5, 11]: 2579 and 2483
- % Activity [5, 12]: 53% and 61%
- Count [5, 12]: 2573 and 2636
- % Activity [5, 13]: 90% and 93%
- Count [5, 13]: 2877 and 2903
- % Activity [5, 14]: 52% and 59%
- Count [5, 14]: 2565 and 2617
- Count ([5]; 2014 Aug. 28, insulin dose 0.01 nM): 1918 and 2052
- Count ([5]; 2014 Aug. 28, insulin dose 0.03 nM): 2281 and 2003
- Count ([5]; 2014 Aug. 28, insulin dose 0.09 nM): 2130 and 2378
- % Activity [5, 15]: 19% and 24%
- Count [5, 15]: 2258 and 2306
- Count ([5]; 2014 Aug. 28, insulin dose 0.82 nM): 2111 and 2261
- % Activity [5, 16]: 13% and 22%
- Count [5, 16]: 2208 and 2286
- % Activity [5, 17]: 39% and 41%
- Count [5, 17]: 2427 and 2442
- % Activity [5, 18]: 84% and 48%
- Count [5, 18]: 2812 and 2503
- % Activity [5, 19]: 75% and 85%
- Count [5, 19]: 2736 and 2827
- % Activity [5, 20]: 85% and 56%
- Count [5, 20]: 2813 and 2574
- Count ([5]; 2014 Jul. 11, insulin dose 0.09 nM): 760 and 587
- Count ([5]; 2014 Jul. 11, insulin dose 0.27 nM): 709 and 761
- % Activity [5, 21]: 28% and 17%
- Count [5, 21]: 800 and 746
- Count ([5]; 2014 Jul. 11, insulin dose 2.47 nM): 736 and 828
- % Activity [5, 22]: 47% and 70%
- Count [5, 22]: 884 and 992
- % Activity [5, 23]: 47% and 72%
- Count [5, 23]: 887 and 1000
- % Activity [5, 24]: 68% and 72%
- Count [5, 24]: 979 and 1000
- % Activity [5, 25]: 68% and 70%
- Count [5, 25]: 980 and 989
- % Activity [5, 26]: 3% and 11%
- Count [5, 26]: 1033 and 1075
- Count ([5]; 2014 Jul. 14, insulin dose 0.27 nM): 1118 and 1018
- % Activity [5, 27]: 12%
- Count [5, 27]: 1082 and 1083
- % Activity [5, 28]: 55% and 32%
- Count [5, 28]: 1317 and 1191
- % Activity [5, 29]: 59% and 41%
- Count [5, 29]: 1335 and 1238
- % Activity [5, 30]: 61% and 63%
- Count [5, 30]: 1347 and 1362
- % Activity [5, 31]: 64% and 42%
- Count [5, 31]: 1364 and 1243
- % Activity [5, 32]: 97% and 106%
- Count [5, 32]: 1545 and 1591
- Count ([5]; Insulin dose 0.03 nM, duplicates): 2039 and 1067
- % Activity [5, 33]: −3% and −4%
- Count [5, 33]: 2101 and 2091
- Count ([5]; Insulin dose 0.27 nM, duplicates): 2196 and 2340
- Count ([5]; Insulin dose 0.82 nM, duplicates): 2069 and 2263
- % Activity [5, 34]: 31% and 39%
- Count [5, 34]: 2395 and 2466
- % Activity [5, 35]: 58% and 63%
- Count [5, 35]: 2633 and 2673
- % Activity [5, 36]: 70% and 61%
- Count [5, 36]: 2736 and 2660
- % Activity [5, 37]: 80% and 62%
- Count [5, 37]: 2820 and 2663
- EC50 ([5]; run of 2014 Aug. 27): 2.54 nM
- EC50 ([5]; run of 2014 Aug. 28): 6.94 nM
- EC50 ([5]; run of 2014 Aug. 29): 6.66 nM
- EC50 ([5]; run of 2014 Jul. 11): 3.96 nM
- EC50 ([5]; run of 2014 Jul. 14): 2.46 nM

From US10335446B2, “Methods of treating diseases using grape proteins” (priority 2015, dated 2019)
